Our source for the MIC values is ChEMBL document CHEMBL3352438, “Synthesis, characterization, molecular docking and anti-tubercular activity of Plumbagin-Isoniazid Analog and its β-cyclodextrin conjugate” (2014).

Common to all, as to assay type: functional
Details in all cases: ATCC 27294, 120 h

For test [1], the system named is Mycobacterium tuberculosis. Put plainly: Antitubercular activity against Mycobacterium tuberculosis ATCC 27294 in low iron condition after 5 days by Alamar blue assay. On the technique in general: Alamar Blue is a resazurin reagent that responds to reducing activity.
Test [2] deals with Mycobacterium tuberculosis. Nature of the test: Antitubercular activity against Mycobacterium tuberculosis ATCC 27294 in high iron condition after 5 days by Alamar blue assay.
Test [3] concerns Mycobacterium tuberculosis. Nature of the test: Antitubercular activity against Mycobacterium tuberculosis ATCC 27294 in 7H9 medium after 5 days by Alamar blue assay.

The structures appear in SMILES notation. Converted amounts (≈) assume the structure as drawn.

Broadly, the MIC is the lowest concentration that inhibits growth of the organism. Lower therefore signals a more susceptible organism. On to `CC1=C/C(=N\NC(=O)c2ccncc2)c2c(O)cccc2C1=O`, for which the figures for the minimal inhibitory concentration (MIC) in test [1], in test [2] and in test [3] were 2 µg/mL (≈ 6.51 µM), 0.5 µg/mL (≈ 1.63 µM) and 8 µg/mL (≈ 26 µM), respectively.

With `CC1=CC(=O)c2c(O)cccc2C1=O` [PLUMBAGIN], the MIC came to 128 µg/mL (≈ 680 µM) in test [1], 4 µg/mL (≈ 21.3 µM) in test [2] and 32 µg/mL (≈ 170 µM) in test [3].

As for `NNC(=O)c1ccncc1` [ISONIAZID], the minimum inhibitory concentration (MIC) came to 32 µg/mL (≈ 233 µM) in test [1], 0.125 µg/mL (≈ 0.911 µM) in test [2] and 0.25 µg/mL (≈ 1.82 µM) in test [3].
